Results as given in the supplement of paper PMC10307832.

Legend:
Experiment in all cases: relative viability (nuclei count vs DMSO), 5 days (fraction); higher = more cells survive
[1] = compound: CCc1cnn2c(NCc3ccc[n+]([O-])c3)cc(N3CCCC[C@H]3CCO)nc12 [Dinaciclib]
How it was run: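 Five library-drug doses spaced by √10 were pinned onto vehicle-anchored 1536-well plates of lung cancer cell lines that had been kept overnight at 37 °C. Cells went 5 days without medium change, then were fixed, permeabilised and Hoechst-stained together, imaged at 4× and counted by MetaXpress. Viability is the ratio of treated-well to vehicle-well nuclei, taken as a median over plates. Plates required control CV below 25% and at least one doubling.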

[2] = compound: CCc1cnn2c(NCc3ccc[n+]([O-])c3)cc(N3CCCC[C@H]3CCO)nc12 [Dinaciclib] + Cc1nc(Nc2ncc(C(=O)Nc3c(C)cccc3Cl)s2)cc(N2CCN(CCO)CC2)n1 [Dasatinib] (partner 0.075 µM)
How it was run: (§1)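 The day after seeding in 1536-well plates, lung cancer cell lines were treated by pin tool with a single drug, or with a fixed anchor-drug dose together with five library-drug doses (not always all listed) in √10 steps. After 5 days, a combined fix-and-stain solution (final 0.05% Triton X-100, 1% formaldehyde, 1 ug/ml Hoechst) was added. Nuclei counted on 4× images gave relative viability as treated counts over vehicle counts, reported as the median of duplicate plates.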

[3] = compound: CCc1cnn2c(NCc3ccc[n+]([O-])c3)cc(N3CCCC[C@H]3CCO)nc12 [Dinaciclib] + Nc1nc2[nH]cc(CCc3ccc(C(=O)N[C@@H](CCC(=O)O)C(=O)O)cc3)c2c(=O)[nH]1 [Pemetrexed] (partner 0.2 µM)
How it was run: as §1

[4] = compound: CCc1cnn2c(NCc3ccc[n+]([O-])c3)cc(N3CCCC[C@H]3CCO)nc12 [Dinaciclib] + COc1cccc2cc(-c3nc([C@H]4CC[C@H](C(=O)O)CC4)n4ncnc(N)c34)[nH]c12 [OSI-027] (partner 0.5 µM)
How it was run: as §1

[5] = compound: CCc1cnn2c(NCc3ccc[n+]([O-])c3)cc(N3CCCC[C@H]3CCO)nc12 [Dinaciclib] + O=C(CCCCCCC(=O)Nc1ccccc1)NO [Vorinostat] (partner 1 µM)
How it was run: as §1

[6] = compound: CCc1cnn2c(NCc3ccc[n+]([O-])c3)cc(N3CCCC[C@H]3CCO)nc12 [Dinaciclib] + N=C(N)NC(=N)NCCc1ccccc1 [Phenformin] (partner 250 µM)
How it was run: as §1

[7] = compound: CCc1cnn2c(NCc3ccc[n+]([O-])c3)cc(N3CCCC[C@H]3CCO)nc12 [Dinaciclib] + NC(=O)Nc1cc(-c2cccc(F)c2)sc1C(=O)N[C@H]1CCCNC1 [AZD7762] (partner 0.2 µM)
How it was run: as §1

[8] = compound: CCc1cnn2c(NCc3ccc[n+]([O-])c3)cc(N3CCCC[C@H]3CCO)nc12 [Dinaciclib] + CC(=O)Nc1cccc(-n2c(=O)n(C3CC3)c(=O)c3c(Nc4ccc(I)cc4F)n(C)c(=O)c(C)c32)c1 [Trametinib] (partner 0.02 µM)
How it was run: as §1

[9] = compound: CCc1cnn2c(NCc3ccc[n+]([O-])c3)cc(N3CCCC[C@H]3CCO)nc12 [Dinaciclib] + COc1cc2c(Oc3ccc(NC(=O)C4(C(=O)Nc5ccc(F)cc5)CC4)cc3F)ccnc2cc1OCCCN1CCOCC1 [Foretinib] (partner 0.25 µM)
How it was run: as §1

[10] = compound: CCc1cnn2c(NCc3ccc[n+]([O-])c3)cc(N3CCCC[C@H]3CCO)nc12 [Dinaciclib] + Nc1ncn([C@H]2C[C@H](O)[C@@H](CO)O2)c(=O)n1 [Decitabine] (partner 2 µM)
How it was run: as §1

[11] = compound: CCc1cnn2c(NCc3ccc[n+]([O-])c3)cc(N3CCCC[C@H]3CCO)nc12 [Dinaciclib] + CC(=O)c1c(C)c2cnc(Nc3ccc(N4CCNCC4)cn3)nc2n(C2CCCC2)c1=O [Palbociclib] (partner 0.5 µM)
How it was run: as §1

[12] = compound: CCc1cnn2c(NCc3ccc[n+]([O-])c3)cc(N3CCCC[C@H]3CCO)nc12 [Dinaciclib] + Cc1cc(Nc2cc(N3CCN(C)CC3)nc(Sc3ccc(NC(=O)C4CC4)cc3)n2)n[nH]1 [Tozasertib] (partner 0.1 µM)
How it was run: as §1

[13] = compound: CCc1cnn2c(NCc3ccc[n+]([O-])c3)cc(N3CCCC[C@H]3CCO)nc12 [Dinaciclib] + O=C(c1cc(Cc2n[nH]c(=O)c3ccccc23)ccc1F)N1CCN(C(=O)C2CC2)CC1 [Olaparib] (partner 8 µM)
How it was run: as §1

[14] = compound: CCc1cnn2c(NCc3ccc[n+]([O-])c3)cc(N3CCCC[C@H]3CCO)nc12 [Dinaciclib] + CCNC(=O)c1noc(-c2cc(C(C)C)c(O)cc2O)c1-c1ccc(CN2CCOCC2)cc1 [Luminespib] (partner 0.01 µM)
How it was run: as §1

## SW 900
[1]; 0.009487 µM
  relative viability: 0.809
[1]; 0.03 µM
  relative viability: 0.286
[1]; 0.09487 µM
  relative viability: 0.119
[1]; 0.3 µM
  relative viability: 0.133
[2]; first compound 0.009487 µM
  relative viability: 0.61
[2]; first compound 0.03 µM
  relative viability: 0.246
[2]; first compound 0.09487 µM
  relative viability: 0.0591
[2]; first compound 0.3 µM
  relative viability: 0.0806
[3]; first compound 0.009487 µM
  relative viability: 0.448
[3]; first compound 0.03 µM
  relative viability: 0.195
[3]; first compound 0.09487 µM
  relative viability: 0.166
[3]; first compound 0.3 µM
  relative viability: 0.153
[4]; first compound 0.009487 µM
  relative viability: 0.578
[4]; first compound 0.03 µM
  relative viability: 0.103
[4]; first compound 0.09487 µM
  relative viability: 0.0689
[4]; first compound 0.3 µM
  relative viability: 0.098
[5]; first compound 0.009487 µM
  relative viability: 0.557
[5]; first compound 0.03 µM
  relative viability: 0.33
[5]; first compound 0.09487 µM
  relative viability: 0.171
[5]; first compound 0.3 µM
  relative viability: 0.143
[6]; first compound 0.009487 µM
  relative viability: 0.612
[6]; first compound 0.03 µM
  relative viability: 0.141
[6]; first compound 0.09487 µM
  relative viability: 0.0751
[6]; first compound 0.3 µM
  relative viability: 0.101
[7]; first compound 0.009487 µM
  relative viability: 0.705
[7]; first compound 0.03 µM
  relative viability: 0.405
[7]; first compound 0.09487 µM
  relative viability: 0.179
[7]; first compound 0.3 µM
  relative viability: 0.148
[8]; first compound 0.009487 µM
  relative viability: 0.805
[8]; first compound 0.03 µM
  relative viability: 0.477
[8]; first compound 0.09487 µM
  relative viability: 0.177
[8]; first compound 0.3 µM
  relative viability: 0.155
[9]; first compound 0.009487 µM
  relative viability: 0.874
[9]; first compound 0.03 µM
  relative viability: 0.462
[9]; first compound 0.09487 µM
  relative viability: 0.0641
[9]; first compound 0.3 µM
  relative viability: 0.0639
[10]; first compound 0.009487 µM
  relative viability: 0.408
[10]; first compound 0.03 µM
  relative viability: 0.325
[10]; first compound 0.09487 µM
  relative viability: 0.182
[10]; first compound 0.3 µM
  relative viability: 0.151
[11]; first compound 0.009487 µM
  relative viability: 0.57
[11]; first compound 0.03 µM
  relative viability: 0.318
[11]; first compound 0.09487 µM
  relative viability: 0.13
[11]; first compound 0.3 µM
  relative viability: 0.158
[12]; first compound 0.009487 µM
  relative viability: 0.707
[12]; first compound 0.03 µM
  relative viability: 0.149
[12]; first compound 0.09487 µM
  relative viability: 0.0868
[12]; first compound 0.3 µM
  relative viability: 0.0829
[13]; first compound 0.009487 µM
  relative viability: 0.749
[13]; first compound 0.03 µM
  relative viability: 0.414
[13]; first compound 0.09487 µM
  relative viability: 0.172
[13]; first compound 0.3 µM
  relative viability: 0.166
[14]; first compound 0.009487 µM
  relative viability: 0.19
[14]; first compound 0.03 µM
  relative viability: 0.176
[14]; first compound 0.09487 µM
  relative viability: 0.0768
[14]; first compound 0.3 µM
  relative viability: 0.0536

## NCI-H1648
[1]; 0.009487 µM
  relative viability: 0.788
[1]; 0.03 µM
  relative viability: 0.301
[1]; 0.09487 µM
  relative viability: 0.247
[1]; 0.3 µM
  relative viability: 0.29
[3]; first compound 0.009487 µM
  relative viability: 0.644
[3]; first compound 0.03 µM
  relative viability: 0.677
[3]; first compound 0.09487 µM
  relative viability: 0.25
[3]; first compound 0.3 µM
  relative viability: 0.199
[4]; first compound 0.009487 µM
  relative viability: 0.263
[4]; first compound 0.03 µM
  relative viability: 0.259
[4]; first compound 0.09487 µM
  relative viability: 0.265
[4]; first compound 0.3 µM
  relative viability: 0.212
[5]; first compound 0.009487 µM
  relative viability: 0.275
[5]; first compound 0.03 µM
  relative viability: 0.434
[5]; first compound 0.09487 µM
  relative viability: 0.294
[5]; first compound 0.3 µM
  relative viability: 0.262
[7]; first compound 0.009487 µM
  relative viability: 0.85
[7]; first compound 0.03 µM
  relative viability: 0.577
[7]; first compound 0.09487 µM
  relative viability: 0.266
[7]; first compound 0.3 µM
  relative viability: 0.24
[8]; first compound 0.009487 µM
  relative viability: 0.49
[8]; first compound 0.03 µM
  relative viability: 0.346
[8]; first compound 0.09487 µM
  relative viability: 0.241
[8]; first compound 0.3 µM
  relative viability: 0.264
[10]; first compound 0.009487 µM
  relative viability: 0.468
[10]; first compound 0.03 µM
  relative viability: 0.218
[10]; first compound 0.09487 µM
  relative viability: 0.231
[10]; first compound 0.3 µM
  relative viability: 0.217
[11]; first compound 0.009487 µM
  relative viability: 0.227
[11]; first compound 0.03 µM
  relative viability: 0.223
[11]; first compound 0.09487 µM
  relative viability: 0.265
[11]; first compound 0.3 µM
  relative viability: 0.224
[12]; first compound 0.009487 µM
  relative viability: 0.503
[12]; first compound 0.03 µM
  relative viability: 0.274
[12]; first compound 0.09487 µM
  relative viability: 0.166
[12]; first compound 0.3 µM
  relative viability: 0.207
[13]; first compound 0.009487 µM
  relative viability: 0.521
[13]; first compound 0.03 µM
  relative viability: 0.387
[13]; first compound 0.09487 µM
  relative viability: 0.234
[13]; first compound 0.3 µM
  relative viability: 0.219

## NCI-H522
[1]; 0.009487 µM
  relative viability: 0.948
[1]; 0.03 µM
  relative viability: 0.72
[1]; 0.09487 µM
  relative viability: 0.353
[1]; 0.3 µM
  relative viability: 0.296
[2]; first compound 0.009487 µM
  relative viability: 0.979
[2]; first compound 0.03 µM
  relative viability: 0.589
[2]; first compound 0.09487 µM
  relative viability: 0.36
[2]; first compound 0.3 µM
  relative viability: 0.319
[3]; first compound 0.009487 µM
  relative viability: 1.32
[3]; first compound 0.03 µM
  relative viability: 1.14
[3]; first compound 0.09487 µM
  relative viability: 0.371
[3]; first compound 0.3 µM
  relative viability: 0.25
[4]; first compound 0.009487 µM
  relative viability: 0.76
[4]; first compound 0.03 µM
  relative viability: 0.517
[4]; first compound 0.09487 µM
  relative viability: 0.439
[4]; first compound 0.3 µM
  relative viability: 0.382
[5]; first compound 0.009487 µM
  relative viability: 1.13
[5]; first compound 0.03 µM
  relative viability: 0.99
[5]; first compound 0.09487 µM
  relative viability: 0.449
[5]; first compound 0.3 µM
  relative viability: 0.319
[6]; first compound 0.009487 µM
  relative viability: 0.598
[6]; first compound 0.03 µM
  relative viability: 0.5
[6]; first compound 0.09487 µM
  relative viability: 0.341
[6]; first compound 0.3 µM
  relative viability: 0.339
[7]; first compound 0.009487 µM
  relative viability: 0.899
[7]; first compound 0.03 µM
  relative viability: 0.991
[7]; first compound 0.09487 µM
  relative viability: 0.359
[7]; first compound 0.3 µM
  relative viability: 0.211
[8]; first compound 0.009487 µM
  relative viability: 0.757
[8]; first compound 0.03 µM
  relative viability: 0.795
[8]; first compound 0.09487 µM
  relative viability: 0.255
[8]; first compound 0.3 µM
  relative viability: 0.251
[10]; first compound 0.009487 µM
  relative viability: 0.688
[10]; first compound 0.03 µM
  relative viability: 0.65
[10]; first compound 0.09487 µM
  relative viability: 0.347
[10]; first compound 0.3 µM
  relative viability: 0.326
[11]; first compound 0.009487 µM
  relative viability: 1.19
[11]; first compound 0.03 µM
  relative viability: 0.855
[11]; first compound 0.09487 µM
  relative viability: 0.316
[11]; first compound 0.3 µM
  relative viability: 0.255
[12]; first compound 0.009487 µM
  relative viability: 0.488
[12]; first compound 0.03 µM
  relative viability: 0.418
[12]; first compound 0.09487 µM
  relative viability: 0.372
[12]; first compound 0.3 µM
  relative viability: 0.278
[13]; first compound 0.009487 µM
  relative viability: 0.573
[13]; first compound 0.03 µM
  relative viability: 0.469
[13]; first compound 0.09487 µM
  relative viability: 0.339
[13]; first compound 0.3 µM
  relative viability: 0.204
[14]; first compound 0.009487 µM
  relative viability: 1.2
[14]; first compound 0.03 µM
  relative viability: 0.653
[14]; first compound 0.09487 µM
  relative viability: 0.465
[14]; first compound 0.3 µM
  relative viability: 0.276
